Values belong to the compound of their own block, whether it stands above or below them.
Tests used:
[1] = Inhibition of tubulin in rabbit corneal cells by alamar blue assay; type: cell-based; conditions: Oryctolagus cuniculus, Cornea
[2] = Inhibition of tubulin in Acanthamoeba polyphaga by alamar blue assay
[3] = Inhibition of tubulin in Acanthamoeba castellanii by alamar blue assay
Acanthamoeba polyphaga = assay: Antimicrobial activity against Acanthamoeba polyphaga; type: functional, organism-based
Acanthamoeba castellanii = assay: Antimicrobial activity against Acanthamoeba castellanii; type: functional, organism-based
Toxoplasma gondii = assay: Antimicrobial activity against Toxoplasma gondii; type: functional, organism-based
Leishmania sp. = assay: Antimicrobial activity against Leishmania sp.; type: functional, organism-based

Structure (SMILES): CCCSc1ccc2[nH]c(NC(=O)OC)nc2c1 [ALBENDAZOLE]
- IC50 [1]: 0.7 µM
- IC50 [2]: > 47 µM
- IC50 [3]: > 47 µM

- IC50 (Acanthamoeba polyphaga): 3.12 µM
- IC50 (Acanthamoeba castellanii): 1.56 µM
Structure (SMILES): N=C(NCCCCCCNC(=N)NC(=N)Nc1ccc(Cl)cc1)NC(=N)Nc1ccc(Cl)cc1 [CHLORHEXIDINE]

Structure (SMILES): COc1cc2c(c(OC)c1OC)-c1ccc(OC)c(=O)cc1[C@@H](NC(C)=O)CC2 [COLCHICINE]
- IC50 [1]: 2.4 µM
- IC50 [2]: 2500 µM
- IC50 [3]: 2.5 µM

Structure (SMILES): CCCN(CCC)c1c([N+](=O)[O-])cc(S(N)(=O)=O)cc1[N+](=O)[O-] [ORYZALIN]
- IC50 [1]: > 500 µM
- IC50 [2]: > 100 µM
- IC50 [3]: > 100 µM

- IC50 (Leishmania sp.): 0.035 µM
Structure (SMILES): CC(=O)O[C@H]1C(=O)[C@@]2(C)[C@H]([C@H](OC(=O)c3ccccc3)[C@]3(O)C[C@H](OC(=O)[C@H](O)[C@@H](NC(=O)c4ccccc4)c4ccccc4)C(C)=C1C3(C)C)[C@]1(OC(C)=O)CO[C@@H]1C[C@@H]2O [PACLITAXEL]
- IC50 (Toxoplasma gondii): 1 µM
- IC50 [1]: 0.04 µM
- IC50 [2]: > 10 µM
- IC50 [3]: > 10 µM

Structure (SMILES): CC[C@]1(O)C[C@@H]2CN(CCc3c([nH]c4ccccc34)[C@@](C(=O)OC)(c3cc4c(cc3OC)N(C)[C@H]3[C@@](O)(C(=O)OC)[C@H](OC(C)=O)[C@]5(CC)C=CCN6CC[C@]43[C@@H]65)C2)C1 [VINBLASTINE]
- IC50 [1]: 0.017 µM
- IC50 [2]: 0.68 µM
- IC50 [3]: 0.68 µM
